# Experimental data: patent US20240108618A1, “KRAS G12C INHIBITOR DOSING REGIMENS” (Eli Lilly and Company, priority 2022, published 2024)
# Marks after values point to notes of the source that are not given here.
# Assays:
# MiaPaca-2 = MiaPaca-2 (pancreas) xenograft model; format: in vivo, mouse
# Protocol: (§1) For xenograft models of H1373, HCC44, MiaPaca-2, SW1463, SW837, KYSE-410 and UM-UC-3, typically 5-10×10^6 cells in a 1:1 matrigel mix (0.2 mL total volume) are implanted by subcutaneous injection in hind leg of nude mice. […] Treatment is initiated with oral administration (gavage) of testing compound or vehicle (20% captisol, 25 mM phosphate, pH2.0) in 0.2 mL volume when tumor size reaches approximately 200-300 mg. Tumor growth and body weight are monitored over time to evaluate efficacy and signs of toxicity. For EL3187 PDX model, frozen vials containing tumor fragments are thawed at 37° C. in a water bath. The tumor fragments are transferred to 50 mL Falcon tube and the ice cold DMEM medium is slowly added into the tube to a total volume of 35 mL. Then the tumor fragments are centrifuged at 130×g for 2 minutes at 4° C. and supernatant is aspirated. This washing step is repeated twice and the tumor fragments are resuspended in 10 mL DMEM for implantation into athymic nude-Foxn1nu mice (Envigo RMS, Inc., Mount Comfort, Indiana). Once tumor volumes reach 800 to 1000 mm^3, animals are sacrificed and tumors are harvested using aseptic technique. Fresh tumors are cut into 10 to 15 mm^3 fragments and placed into cold Gibco hibernate medium. The tumor fragments are subcutaneously implanted into animals with a 10 g trochar needle. When tumor size reaches 200 to 300 mm^3, the animals are randomized for compound treatment.
# (§2) Among models listed in Table 2, EL3187 is a patient-derived xenograft (PDX) model, and all other are tumor xenograft models.
# [1] = tested on: KRAS G12C-mutant advanced solid tumors; assay: NCT04956640 Phase 1a, Phase 1b Cohort B4 and Cohort C2 pooled statements
# Excerpt: (§3) NCT04956640 includes Phase 1a dose escalation (Part A of NCT04956640, see Table 3) followed by a Phase 1b dose expansion (Parts B to E of NCT04956640, see Table 4). […] Phase 1b dose expansion will include 12 cohorts (See Table 4) to further evaluate safety and clinical activity.
# H358 lung tumor cells = assay: Anti-tumor growth activity in lung cancer H358 xenograft mouse model; format: in vivo
# Protocol: H358 lung tumor cells (10×10^6) are implanted by subcutaneous injection in hind leg of nude female mice (Taconic Biosciences). A total of 4 mice in each group are used for the efficacy study. Treatment is initiated with oral administration (gavage) of the test compound or vehicle (20% Captisol®, 25 mM phosphate, pH 2.0 in 0.2 mL volume) once or twice daily for 28 days when the tumor size reaches approximately 300 mg. Tumor growth and body weight are monitored over time to evaluate efficacy and signs of toxicity.
# UM-UC-3 = UM-UC-3 (bladder) xenograft model; format: in vivo, mouse
# Protocol: as §1, §2
# KYSE-410 = KYSE-410 (esophagus) xenograft model; format: in vivo, mouse
# Protocol: as §1, §2
# [2] = NCT04956640 Phase 1a clinical pharmacokinetics, monotherapy
# Excerpt: as §3
# [3] = Excerpt: A “DLT” is defined as any of the treatment-emergent adverse event (TEAEs), as defined by the National Cancer Institute's Common Terminology Criteria for Adverse Events, version 5.0 (NCI CTCAE v5.0), deemed clinically significant and occurring during the first 21 days of study drug per dose level per patient, unless the adverse event (AE) can be clearly related to the patient's underlying disease, other medical condition, or concomitant medications including any AEs attributed by the Investigator to the combination agent alone. A TEAE is defined as an AE that starts or worsens on or after the date of the first dose of study drug (for example on Study Day 1) through 28 days (+14 days window) after the date of the last dose of study drug or the first date starting new anticancer therapy, whichever is earlier. A Serious TEAE is defined as an TEAE that is grade 3 or higher based on severity grade assignment as defined by the National Cancer Institute's Common Terminology Criteria for Adverse Events, version 5.0 (NCI CTCAE v5.0). A Fatal TEAE is defined as an TEAE that is grade 5 based on severity grade assignment as defined by the National Cancer Institute's Common Terminology Criteria for Adverse Events, version 5.0 (NCI CTCAE v5.0).
# as §3
# HCC44 = HCC44 (lung) xenograft model; format: in vivo, mouse
# Protocol: as §1, §2
smiles,measurement,setting,value
"C=CC(=O)N1CCN2C(=O)c3cc(F)c(-c4ccc(F)c5sc(N)c(C#N)c45)c(Cl)c3OCC[C@H]2C1 (single isomer, unassigned) [Formula I]",tumor growth inhibition (%) or regression (− %),MiaPaca-2; 5 mg/kg BID x28,−36.1%
same,tumor growth inhibition (%) or regression (− %),MiaPaca-2; 5 mg/kg QD x28,81.7%
same,tumor growth inhibition (%) or regression (− %),MiaPaca-2; 10 mg/kg BID x28,−45.2%
same,tumor growth inhibition (%) or regression (− %),MiaPaca-2; 10 mg/kg QD x28,−27%
same,tumor growth inhibition (%) or regression (− %),MiaPaca-2; 30 mg/kg BID x28,−43.6%
same,tumor growth inhibition (%) or regression (− %),MiaPaca-2; 30 mg/kg QD x28,−42%
same,DLTs,[1]; as of January 2023,No DLTs were observed
same,MTD,[1]; as of January 2023,MTD was not reached
same,patients with a grade 3 or greater TEAE,[1]; as of January 2023,four
same,patients with dose reduction due to TRAE,[1]; as of January 2023,one
same,patients with permanent discontinuation due to TRAE,[1]; as of January 2023,one
same,TRAE grade in seven patients who discontinued a prior KRAS G12C inhibitor due to toxicity,[1]; in vivo,≤ 2 grade
same,median time to response,[1]; in vivo,1.4 month
same,% Regression (Day 12),"H358 lung tumor cells; 30 mg/kg PO, BID",−72.14%
same,% Regression (Day 26),"H358 lung tumor cells; 30 mg/kg PO, BID",−67.68%
same,% tumor regression,H358 lung tumor cells; 30 mg/kg twice daily,−67.68 to −72.14%
same,animal body weight loss,H358 lung tumor cells; through the whole study,No significant animal body weight loss
same,tumor growth inhibition (%) or regression (− %),UM-UC-3; 5 mg/kg BID x28,45.3%
same,tumor growth inhibition (%) or regression (− %),UM-UC-3; 5 mg/kg QD x28,34.3%
same,tumor growth inhibition (%) or regression (− %),UM-UC-3; 10 mg/kg BID x28,75%
same,tumor growth inhibition (%) or regression (− %),UM-UC-3; 10 mg/kg QD x28,33.6%
same,tumor growth inhibition (%) or regression (− %),UM-UC-3; 30 mg/kg BID x28,85%
same,tumor growth inhibition (%) or regression (− %),UM-UC-3; 30 mg/kg QD x28,83.1%
same,tumor growth inhibition (%) or regression (− %),KYSE-410; 10 mg/kg BID x28,51.5%
same,tumor growth inhibition (%) or regression (− %),KYSE-410; 10 mg/kg QD x28,25.3%
same,tumor growth inhibition (%) or regression (− %),KYSE-410; 30 mg/kg BID x28,61.8%
same,tumor growth inhibition (%) or regression (− %),KYSE-410; 30 mg/kg QD x28,66.7%
same,AUC,[2]; 50 mg BID,634 (53%) ng.h/mL
same,Cmax,[2]; 50 mg BID,144 (45%) ng/ml
same,Ctrough-Cmin,[2]; 50 mg BID,23.8 (90%)^c ng/mL
same,t½,[2]; 50 mg BID,3.03 (41%)^c h
same,AUC,[2]; 100 mg BID,1475 (77%) ng.h/mL
same,Cmax,[2]; 100 mg BID,305 (75%) ng/ml
same,Ctrough-Cmin,[2]; 100 mg BID,44.9 (73%) ng/mL
same,Ctrough-Cmin compared with TEC90,[2]; 100 mg BID,> 25 ng/mL
same,t½,[2]; 100 mg BID,3.01 (33%)^b h
same,AUC,[2]; 150 mg BID,1795 (47%) ng.h/mL
same,Cmax,[2]; 150 mg BID,368 (51%) ng/ml
same,Ctrough-Cmin,[2]; 150 mg BID,54.5 (60%) ng/mL
same,Ctrough-Cmin compared with TEC90,[2]; 150 mg BID,> 25 ng/mL
same,t½,[2]; 150 mg BID,3.41 (32%) h
same,AUC,[2]; 200 mg BID,1372 (59%) ng.h/mL
same,Cmax,[2]; 200 mg BID,325 (61%) ng/ml
same,Ctrough-Cmin,[2]; 200 mg BID,40.3 (73%) ng/mL
same,Ctrough-Cmin compared with TEC90,[2]; 200 mg BID,> 25 ng/mL
same,t½,[2]; 200 mg BID,2.35 (58%) h
same,discontinuation due to TRAE,[3]; 50 mg BID,one
same,"rate of immune-related AEs, including hepatoxicity",[3]; 50 mg BID and 100 mg BID,low rate of immune-related AEs
same,dose reductions,[3]; 50 mg and 100 mg BID,no dose reductions
same,tumor growth inhibition (%) or regression (− %),HCC44; 5 mg/kg BID x28,57.5%
same,tumor growth inhibition (%) or regression (− %),HCC44; 5 mg/kg QD x28,28.3%
same,tumor growth inhibition (%) or regression (− %),HCC44; 10 mg/kg BID x28,61.8%
same,tumor growth inhibition (%) or regression (− %),HCC44; 10 mg/kg QD x28,32.7%
same,tumor growth inhibition (%) or regression (− %),HCC44; 30 mg/kg BID x28,84.1%
same,tumor growth inhibition (%) or regression (− %),HCC44; 30 mg/kg QD x28,77%
